The source of these data is PubChem BioAssay (NCI).

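Method: 48-hour compound exposure of cells in 96-well plates, five concentrations, linear interpolation of endpoints. GI50 marks 50% less growth. At the TGI there is no net growth.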

Among the test systems are SF-268 CNS; OVCAR-3 ovarian; SK-MEL-2 melanoma; RPMI-8226 leukemia; UACC-257 melanoma; SK-MEL-5 melanoma; HCC-2998 colon; CAKI-1 renal; RXF 393 renal; HCT-116 colon.
Holding throughout (test): NCI tumour cell line growth inhibition, 48 h

In the case of `O=C(CC(=O)c1cccc(Cl)c1)c1cccc(Cl)c1`, the GI50 is 2.76 µM in the assay on SF-268 CNS; 1.67 µM in the assay on OVCAR-3 ovarian; 4.75 µM in the assay with SK-MEL-2 melanoma; 1.45 µM in the assay with RPMI-8226 leukemia; 5.99 µM with UACC-257 melanoma; 3.87 µM in the assay on SK-MEL-5 melanoma. Moreover, the GI50 with HCC-2998 colon was 5.31 µM; in the assay with CAKI-1 renal it was 1.61 µM; with RXF 393 renal, 3.69 µM; with HCT-116 colon it was 1.15 µM. Moreover, the TGI was above 100 µM with SF-268 CNS; 6.09 µM in the assay on OVCAR-3 ovarian; above 100 µM in the assay with SK-MEL-2 melanoma; above 100 µM in the assay on RPMI-8226 leukemia; above 100 µM with UACC-257 melanoma; above 100 µM with SK-MEL-5 melanoma. Besides, the TGI was above 100 µM with HCC-2998 colon, 6.65 µM in the assay with CAKI-1 renal, above 100 µM in the assay on RXF 393 renal and above 100 µM with HCT-116 colon.
Turning to `Cc1ccc(-c2nc([P+](c3ccccc3)(c3ccccc3)c3ccccc3)c(Nc3ccccc3)o2)cc1`, the GI50 in the assay on SF-268 CNS was 1.15 µM; with OVCAR-3 ovarian it was 0.288 µM; with SK-MEL-2 melanoma, 0.808 µM; in the assay with RPMI-8226 leukemia, 0.227 µM; in the assay on UACC-257 melanoma, 0.831 µM; in the assay on SK-MEL-5 melanoma, 0.406 µM. Also, the GI50 is 0.659 µM in the assay with HCC-2998 colon, 1.08 µM with CAKI-1 renal, 0.926 µM with RXF 393 renal and 0.265 µM in the assay on HCT-116 colon. Further, the TGI in the assay on SF-268 CNS is 2.53 µM; in the assay on OVCAR-3 ovarian it was 0.886 µM; with SK-MEL-2 melanoma, 2.42 µM; with RPMI-8226 leukemia, 0.739 µM; with UACC-257 melanoma it was 2.7 µM; in the assay with SK-MEL-5 melanoma, 1.48 µM. Further, the TGI in the assay on HCC-2998 colon was 2.02 µM; with CAKI-1 renal, 2.34 µM; with RXF 393 renal, 2.34 µM; in the assay with HCT-116 colon, 1.22 µM.
Take `Clc1ccccc1C(Nc1ncccn1)Nc1ncccn1`: the TGI with SF-268 CNS, in the assay on OVCAR-3 ovarian, with SK-MEL-2 melanoma, in the assay with RPMI-8226 leukemia, in the assay on UACC-257 melanoma and in the assay with SK-MEL-5 melanoma was above 100 µM in each case. Moreover, the TGI in the assay with HCC-2998 colon, in the assay with CAKI-1 renal, in the assay with RXF 393 renal and in the assay with HCT-116 colon was above 100 µM each time.
In the case of `CN(C)c1ccc(/C=c2/c3ccccc3n3c2c2cc(F)ccc2[n+]3C)cc1`, the GI50 was 3.38 µM in the assay with SF-268 CNS; 2.98 µM in the assay with OVCAR-3 ovarian; 3.54 µM in the assay with SK-MEL-2 melanoma; 0.715 µM in the assay on RPMI-8226 leukemia; 4.31 µM in the assay on UACC-257 melanoma; 2.35 µM in the assay on SK-MEL-5 melanoma. The results for the GI50 in the assay with CAKI-1 renal, in the assay on RXF 393 renal and in the assay with HCT-116 colon were 11.6 µM, 5.91 µM and 4.78 µM, respectively. Moreover, the TGI in the assay on SF-268 CNS stood at 15.7 µM; in the assay on OVCAR-3 ovarian, 12.5 µM; with SK-MEL-2 melanoma, 11.1 µM; in the assay with RPMI-8226 leukemia, 3.55 µM; in the assay on UACC-257 melanoma, 11.8 µM; with SK-MEL-5 melanoma, 6.06 µM. In addition, the TGI with HCC-2998 colon was 11.4 µM; in the assay on CAKI-1 renal, 29.4 µM; with RXF 393 renal, 21.8 µM; in the assay on HCT-116 colon, above 100 µM.
As to `COc1ccc(Nc2nc3cc(N)cc(N)c3nc2-c2ccccc2)cc1OC`, the GI50 was 14.2 µM in the assay with SF-268 CNS; 29.9 µM in the assay with OVCAR-3 ovarian; 27.2 µM in the assay on SK-MEL-2 melanoma; 7.95 µM in the assay on RPMI-8226 leukemia; 35.6 µM in the assay on UACC-257 melanoma; 12.2 µM in the assay on SK-MEL-5 melanoma. Also, the GI50 was 18.4 µM in the assay with HCC-2998 colon, 18.3 µM with CAKI-1 renal, 8.15 µM in the assay with RXF 393 renal and 14.9 µM in the assay on HCT-116 colon. The TGI is 47.1 µM in the assay with SF-268 CNS; above 100 µM in the assay with OVCAR-3 ovarian; above 100 µM in the assay on SK-MEL-2 melanoma; 28.3 µM in the assay with RPMI-8226 leukemia; above 100 µM in the assay with UACC-257 melanoma; 25.5 µM in the assay on SK-MEL-5 melanoma. For the same compound, the TGI turned out to be 39.6 µM in the assay on HCC-2998 colon, 66 µM in the assay with CAKI-1 renal, 49.4 µM with RXF 393 renal and 29.7 µM in the assay on HCT-116 colon.
As to `Cc1ccc(NCCN(C)C)c2c(=O)c3ccccc3sc12`, the GI50 with SF-268 CNS is 1.97 µM; with OVCAR-3 ovarian, 1.86 µM; with SK-MEL-2 melanoma, 2 µM; in the assay with RPMI-8226 leukemia, 1.67 µM; in the assay with UACC-257 melanoma, 1.88 µM; with SK-MEL-5 melanoma it was 1.49 µM. Besides, the GI50 was 1.57 µM in the assay on HCC-2998 colon, 2.08 µM in the assay with CAKI-1 renal, 1.96 µM in the assay with RXF 393 renal and 1.47 µM in the assay on HCT-116 colon. The TGI in the assay with SF-268 CNS worked out at 4.74 µM; with OVCAR-3 ovarian, 3.73 µM; in the assay on SK-MEL-2 melanoma, 4.31 µM; in the assay on RPMI-8226 leukemia it was 4.21 µM; in the assay with UACC-257 melanoma, 3.83 µM; in the assay with SK-MEL-5 melanoma, 2.83 µM. Moreover, the TGI with HCC-2998 colon stood at 2.92 µM; in the assay on CAKI-1 renal, 7.56 µM; in the assay with RXF 393 renal, 4.59 µM; in the assay on HCT-116 colon it was 2.8 µM.
In the case of `Oc1[nH]c2ccccc2c1N=Nc1c(F)c(F)c(F)c(F)c1F`, the TGI in the assay with SF-268 CNS was above 100 µM; in the assay on OVCAR-3 ovarian, above 100 µM; with SK-MEL-2 melanoma, above 100 µM; in the assay with RPMI-8226 leukemia it was 25.4 µM; in the assay with UACC-257 melanoma, above 71.5 µM; in the assay with SK-MEL-5 melanoma it was above 100 µM. The TGI with HCC-2998 colon was above 100 µM; in the assay on CAKI-1 renal, above 64.3 µM; in the assay on RXF 393 renal it was above 100 µM; in the assay on HCT-116 colon it was above 100 µM.
`Cc1c(C(N)=O)sc2c1c(=O)n(Cc1ccccc1)c1nnc(-c3ccc(Br)cc3)n21`: the GI50 in the assay with SF-268 CNS is 1.4 µM; in the assay with OVCAR-3 ovarian, 2.48 µM; in the assay on SK-MEL-2 melanoma, 5.73 µM; with RPMI-8226 leukemia, 4.72 µM; in the assay with UACC-257 melanoma it was 3.14 µM; in the assay with SK-MEL-5 melanoma it was 1.47 µM. Also, the GI50 is 1.91 µM in the assay on HCC-2998 colon, 0.431 µM in the assay with CAKI-1 renal, 1.81 µM with RXF 393 renal and 1.75 µM in the assay on HCT-116 colon. Besides, the TGI with SF-268 CNS was 13.4 µM; in the assay with OVCAR-3 ovarian, 16.9 µM; in the assay on SK-MEL-2 melanoma it was 18.7 µM; in the assay on RPMI-8226 leukemia, 47.7 µM; in the assay on UACC-257 melanoma, 11.8 µM; with SK-MEL-5 melanoma it was 4.89 µM. Also, the TGI worked out at 14.6 µM in the assay with HCC-2998 colon, 6.96 µM in the assay with CAKI-1 renal, 7.15 µM in the assay with RXF 393 renal and 13.6 µM with HCT-116 colon.
